What was measured:
[1] = Pharmacokinetics following intravenous (IV) dosing; type: in vivo, Sprague-Dawley rats; details: male, Sprague-Dawley, rat, plasma, iv, 1 mg/kg; for Cmax: read-out: Cmax; for half-life: read-out: T1/2(2); for Vd: read-out: Vss
From the text: (§1) There were 3 rats/group. All animals were food fasted overnight. […] The predose sample was collected from the JVC.
(§2) Following the last collection point, the animals were euthanized.

[2] = Pharmacokinetics following oral (PO) dosing; type: in vivo, Sprague-Dawley rats; details: male, Sprague-Dawley, rat, plasma, po, 5 mg/kg; for Cmax: read-out: Cmax; for half-life: read-out: T1/2(2); for Tmax: read-out: Tmax (converted)
From the text: as §1, §2

[3] = target: T1, human kappa opioid receptor (Homo sapiens, UniProt P41145); assay: biochemical; type: binding
T1 construct: expressed in transfected cells; host or cells: CHO cells
Experimental: (§3) Radioligand displacement was measured using scintillation proximity assays (SPA).
(§4) Briefly, serial dilutions of the test compounds were placed in a 96-well plate to which were added SPA beads, membrane and radioligand. The assay conditions for each opioid receptor subtype are described in Table 10 below. The plates were incubated for 8 hours-overnight at room temperature, spun at 1000 rpm to pellet the SPA beads, and radioactivity was measured using the TopCount® microplate Scintillation counter. Specific binding at each concentration of test compound was calculated by subtracting the non-specific binding measured in the presence of excess cold ligand. IC50 values were obtained by non-linear regression of specific binding versus concentration curves and Ki values were calculated using Kd values that were experimentally pre-determined for each lot of membrane preparations.

[4] = target: T2, human mu opioid receptor (Homo sapiens, UniProt P35372); assay: biochemical; type: binding; details: CHO-K1 membranes, [3H]DAMGO 6 nM; read-out: Ki, Mu opioid receptor
T2 construct: expressed in transfected cells; host or cells: CHO cells
Experimental: as §3, §4

[5] = target: T2, human mu opioid receptor; assay: cell-based; details: for Emax: maximal response at the highest tested concentration, read-out: % max effect, mu opioid receptor; for EC50: read-out: EC50, mu opioid receptor
Experimental: (§5) Studies were conducted in CHO cells heterologously expressing the cloned human mu, kappa or delta opioid receptors. cAMP was measured using a cAMP HiRange homogenous time-resolved fluorescence assay (HTRF Assay), that is based on a competitive immunoassay principle (Cisbio, Cat.#62AM6PEC).
(§6) Briefly, suspensions of cells expressing either the mu, kappa or delta opioid receptors were prepared in buffer containing 0.5 mM isobutyl-methyl xanthine (IBMX). […] EC50 values were calculated for each compound from a sigmoidal dose-response plot of concentrations versus maximum response. To determine if the compounds behaved as full or partial agonists in the system, the maximal response at the highest tested concentrations of compounds were compared to that produced by a known full agonist.

[6] = target: T1, human kappa opioid receptor; assay: cell-based
Experimental: as §5, §6

[7] = test system: squirrel monkeys; assay: Monkey self-administration model of addictive potential
From the text: Dose-related effects of the test articles were examined, using two or more doses of each drug in 3-4 subjects in a double alternation schedule in which each unit dose (or vehicle) was used in two consecutive sessions before a change in unit dose.
Addictive potential of opioid compounds and opioid conjugates of the invention may be assessed through the use of squirrel monkey models as known in the art.
Under the double alternation schedule, each unit dose (or vehicle) was available for intravenous self-administration for two consecutive sessions before the unit dose was changed. In this way, it was possible to establish the function relating unit dose of intravenous drug to (i) number of injections per session, and/or (ii) the percentage of total responses that occur on the lever leading to self-administration (injection-lever responding, % ILR). Unit doses of drugs ranged from 0.01 to 3.2 mg/kg/injection.

[8] = test system: Male CD-1 mice; assay: Assessment of CNS side effects in mice (Straub tail, muscle rigidity, pinna reflex); details: for Loss Pinna, number of animals responding (N=2) / Muscle Rigidity, number of animals responding (N=2) / Straub Tail Effect, number of animals responding (N=2): oral
From the text: The objective of this study was to provide an approximation of the side effect profile of various oligomeric conjugates for comparison to the parent compounds by measuring various gross behavioral and physiological signs following administration of compound.
Additional evaluations included muscle rigidity and pinna reflex.
Male CD-1 mice from Charles River Laboratories, Raleigh, N.C., weighing from 16-18 grams were maintained on a regular light/dark cycle (lights on 0600-1800) with ad libitum food and water for 1 week before commencement of testing. N=2 per treatment condition, i.e., separate mice for each dose of each test article, injection was performed via a 25-gauge ⅝-inch needle on a 1-mL tuberculin syringe for the s.c. route and a 22-gauge stainless steel mouse feeding tube for the p.o. route (Becton, Dickinson & Co., Franklin Lakes, N.J.). Each treatment condition was divided about evenly between two observers. […] Test article was administered (s.c. or p.o., and the mouse was placed immediately in the observation chamber). One-half, 1, 2, and 3 hours later, the animal was observed undisturbed for gross signs such as locomotor ataxia, tremor, hyperactivity, hypoactivity, convulsions, hindlimb splay, and Straub tail, and then removed and assessed for muscle tone (normal, rigid, flaccid), pinna reflex (presence or absence), righting reflex (intact or lost), and placing (whether or not the forepaws are extended when the mouse is placed near a surface).
Each of the tables show the number of animals responding at each dose, where N=2. […] A bolded value indicates the lowest dose at which a response was detected.

[9] = test system: mice; assay: Oral dose giving maximal analgesia; type: in vivo

T1 sequence (P41145 whole entry): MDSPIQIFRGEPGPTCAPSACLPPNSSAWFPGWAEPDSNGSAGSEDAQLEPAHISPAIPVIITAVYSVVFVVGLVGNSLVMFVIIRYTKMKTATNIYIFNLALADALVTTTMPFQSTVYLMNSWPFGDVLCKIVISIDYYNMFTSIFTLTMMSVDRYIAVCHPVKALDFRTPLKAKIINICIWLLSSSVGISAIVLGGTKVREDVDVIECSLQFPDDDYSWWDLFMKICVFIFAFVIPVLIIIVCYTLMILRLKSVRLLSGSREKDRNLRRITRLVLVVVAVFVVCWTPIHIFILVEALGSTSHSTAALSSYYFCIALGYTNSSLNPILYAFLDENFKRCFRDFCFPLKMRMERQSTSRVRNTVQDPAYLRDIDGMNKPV
T2 sequence (P35372 whole entry): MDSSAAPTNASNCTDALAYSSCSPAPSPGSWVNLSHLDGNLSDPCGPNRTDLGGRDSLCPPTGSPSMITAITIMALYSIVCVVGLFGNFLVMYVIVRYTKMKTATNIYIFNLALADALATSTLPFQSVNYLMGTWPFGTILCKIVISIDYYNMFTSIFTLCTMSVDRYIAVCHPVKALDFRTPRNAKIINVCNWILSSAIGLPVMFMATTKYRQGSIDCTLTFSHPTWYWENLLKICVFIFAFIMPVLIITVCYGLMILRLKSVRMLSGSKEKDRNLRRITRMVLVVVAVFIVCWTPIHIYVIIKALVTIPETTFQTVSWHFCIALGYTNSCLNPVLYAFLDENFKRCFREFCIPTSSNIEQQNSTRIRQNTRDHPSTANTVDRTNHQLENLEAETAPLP

SMILES: COCCOCCOCCOCCOC1C=CC2C3Cc4ccc(OC)c5c4C2(CCN3C)C1O5 (stereo not drawn) [α-6-mPEG4-O-codeine]
- AUC [1]: 253 ng·h/mL
- AUC(0-inf) [1]: 257 ng·h/mL
- MRT last [1]: 27.5 min
- clearance [1]: 65.9 ± 10.4 mL/min/kg
- Cmax [1]: 746 ± 70 ng/mL
- half-life [1]: 57.1 ± 43.8 min
- Vd [1]: 2.3 ± 0.72 L/kg
- AUC [2]: 42.2 ng·h/mL
- AUC(0-inf) [2]: 44.5 ng·h/mL
- MRT last [2]: 83.8 min
- bioavailability [2]: 3.47%
- Cmax [2]: 31.1 ± 13.1 ng/mL
- half-life [2]: 118 ± 60 min
- Tmax [2]: 15 min
- Ki [3]: 97 µM
- Ki [4]: 2.89 µM
- Emax [5]: 99%
- EC50 [5]: 22.1 µM

SMILES: COCCOCCOC1C=CC2C3Cc4ccc(OC)c5c4C2(CCN3C)C1O5 (stereo not drawn) [α-6-mPEG2-O-codeine]
- AUC [1]: 242 ng·h/mL
- AUC(0-inf) [1]: 243 ng·h/mL
- MRT last [1]: 31.5 min
- clearance [1]: 69 ± 7.57 mL/min/kg
- Cmax [1]: 685 ± 41 ng/mL
- half-life [1]: 35.3 ± 2.78 min
- Vd [1]: 2.25 ± 0.166 L/kg
- AUC [2]: 5.85 ng·h/mL
- AUC(0-inf) [2]: 6.98 ng·h/mL
- MRT last [2]: 62 min
- bioavailability [2]: 0.57%
- Cmax [2]: 3.47 ± 0.606 ng/mL
- half-life [2]: 97.6 ± 28.4 min
- Tmax [2]: 15 min
- Ki [3]: 22.6 µM
- Ki [4]: 1.38 µM
- EC50 [6]: 40.1 µM
- Emax ([6]; maximal response at the highest tested concentration, read-out: % max effect, kappa opioid receptor): 59%
- Emax [5]: 75%
- EC50 [5]: 5.14 µM

SMILES: CN1CC[C@]23c4c5ccc(O)c4O[C@H]2[C@@H](O)C=C[C@H]3[C@H]1C5 [Morphine, morphine, reference compound]
- injection lever responses (% ILR) ([7]; 0.03 mg/kg/injection): 100%
- subjects showing addictive behavior ([7]; 0.1 mg/kg/injection): 100%
- mice showing the straub tail response ([8]; oral doses up to 100 mg/kg): 100%
- Loss Pinna, number of animals responding (N=2) ([8]; 1 mg/kg): 0
- Muscle Rigidity, number of animals responding (N=2) ([8]; 1 mg/kg): 0
- Straub Tail Effect, number of animals responding (N=2) ([8]; 1 mg/kg): 0
- Loss Pinna, number of animals responding (N=2) ([8]; 3 mg/kg): 2
- Muscle Rigidity, number of animals responding (N=2) ([8]; 3 mg/kg): 0
- Straub Tail Effect, number of animals responding (N=2) ([8]; 3 mg/kg): 2
- Loss Pinna, number of animals responding (N=2) ([8]; 10 mg/kg): 1
- Muscle Rigidity, number of animals responding (N=2) ([8]; 10 mg/kg): 1
- Straub Tail Effect, number of animals responding (N=2) ([8]; 10 mg/kg): 2
- Loss Pinna, number of animals responding (N=2) ([8]; 30 mg/kg): 2
- Muscle Rigidity, number of animals responding (N=2) ([8]; 30 mg/kg): 2
- Straub Tail Effect, number of animals responding (N=2) ([8]; 30 mg/kg): 2
- Loss Pinna, number of animals responding (N=2) ([8]; 100 mg/kg): 2
- Muscle Rigidity, number of animals responding (N=2) ([8]; 100 mg/kg): 2
- Straub Tail Effect, number of animals responding (N=2) ([8]; 100 mg/kg): 1
- Loss Pinna, number of animals responding (N=2) ([8]; 300 mg/kg): 2
- Muscle Rigidity, number of animals responding (N=2) ([8]; 300 mg/kg): 2
- Straub Tail Effect, number of animals responding (N=2) ([8]; 300 mg/kg): 1
- oral dose at which maximal analgesia was obtained [9]: 20 mg/kg

Reference: US20130023553A1, “PEGYLATED OPIOIDS WITH LOW POTENTIAL FOR ABUSE AND SIDE EFFECTS” (Nektar Therapeutics, priority 2010, published 2013)
